Data published in US9884832B2 (priority 2011, dated 2018).
Where two headings read alike, the source gives them in different places.

Experiments:
[1] = biological target: AM2 V27A (valine→alanine mutation at residue 27 in the M2 protein) (Influenza A virus, UniProt P0DOF5, V27A); format: cell-based, influenza virus A/Udorn/72
[2] = biological target: AM2 S31N (serine→asparagine mutation at residue 31 in the M2 protein) (Influenza A virus, UniProt P0DOF5, S31N); format: cell-based, influenza virus A/Udorn/72

SMILES	V27A OOcyte Inhibition at 100 uM (%) ([1]; pH 5.5)	S31N OOcyte Inhibition at 100 uM (%) ([2]; pH 5.5)	V27A OOcyte Inhibition at 100 uM (%) [1]	S31N OOcyte Inhibition at 100 uM (%) [2]
NC(=O)COc1ccc(CNC23CC4CC(CC(C4)C2)C3)cc1 [Example 39, 2-(4-((Adamantan-1-ylamino)methyl)phenoxy)acetamide]	B (key: (A)=31-95%; (B)=0-30%)	B (key: (A)=31-95%; (B)=0-30%)		
OCC(Cc1cnc[nH]1)NCC12CC3CC(CC(C3)C1)C2 (stereo not drawn) [Example 2, 2-[(adamantan-1-ylmethyl)-amino]-3-(3H-imidazol-4-yl)-propan-1-ol]	B (key: (A)=31-95%; (B)=0-30%)	B (key: (A)=31-95%; (B)=0-30%)		
c1cc(-c2ccc(CNC34CC5CC(CC(C5)C3)C4)cc2)co1 [Example 42, N-(4-(Furan-3-yl)benzyl)adamantan-1-amine]	B (key: (A)=31-95%; (B)=0-30%)	A (key: (A)=31-95%; (B)=0-30%)		
F[B-](F)(F)C[NH2+]C12CC3CC(CC(C3)C1)C2 [Example 204a, N-[(Trifluoro-4-boranyl)methyl]adamantan-1-aminium]			B (key: (A)=31-95%; (B)=0-30%)	B (key: (A)=31-95%; (B)=0-30%)
c1ccc(Oc2ccc(CNC34CC5CC(CC(C5)C3)C4)cc2)cc1 [Example 13a, Adamantan-1-yl-(4-phenoxy-benzyl)-amine]			B (key: (A)=31-95%; (B)=0-30%)	A (key: (A)=31-95%; (B)=0-30%)
NCc1ccc(CNC23CC4CC(CC(C4)C2)C3)cc1 [Example 13, Adamantan-1-yl-(4-aminomethyl-benzyl)-amine]	A (key: (A)=31-95%; (B)=0-30%)	B (key: (A)=31-95%; (B)=0-30%)		
COc1ccc2cc(CNC34CC5CC(CC(C5)C3)C4)sc2c1 [Example 185a, N-((6-methoxybenzo[b]thiophen-2-yl)methyl)adamantan-1-amine]			B (key: (A)=31-95%; (B)=0-30%)	A (key: (A)=31-95%; (B)=0-30%)
COc1ccc2cc(CNC34CC5CC(CC(C5)C3)C4)[nH]c2c1 [Example 186a, N-((6-methoxy-1H-indol-2-yl)methyl)adamantan-1-amine]			B (key: (A)=31-95%; (B)=0-30%)	A (key: (A)=31-95%; (B)=0-30%)
c1scc2[nH]c(CNC34CC5CC(CC(C5)C3)C4)nc12 [Example 171a, Adamantan-1-yl-(1H-thieno[3,4-d]imidazol-2-ylmethyl)-amine]			B (key: (A)=31-95%; (B)=0-30%)	A (key: (A)=31-95%; (B)=0-30%)
c1ccc(-c2nnc(CNC34CC5CC(CC(C5)C3)C4)o2)cc1 [Example 115a, N-((5-phenyl-1,3,4-oxadiazol-2-yl)methyl)adamantan-1-amine]			B (key: (A)=31-95%; (B)=0-30%)	A (key: (A)=31-95%; (B)=0-30%)
c1cc2c(cc1CNC13CC4CC(CC(C4)C1)C3)OCO2 [Example 49]	B (key: (A)=31-95%; (B)=0-30%)	B (key: (A)=31-95%; (B)=0-30%)		
C[S+]([O-])c1ccc(CNC23CC4CC(CC(C4)C2)C3)cc1 (stereo not drawn) [Example 24, Adamantan-1-yl-(4-methanesulfinyl-benzyl)-amine]	B (key: (A)=31-95%; (B)=0-30%)	B (key: (A)=31-95%; (B)=0-30%)		
CSc1ccc(CNC2C3CC4CC(C3)CC2C4)cc1 (stereo not drawn) [Example 103, Adamantan-2-yl-(4-methylsulfanyl-benzyl)-amine]	A (key: (A)=31-95%; (B)=0-30%)	A (key: (A)=31-95%; (B)=0-30%)		
Brc1ccc(-c2ccc(CNC34CC5CC(CC(C5)C3)C4)s2)s1 [Example 159a, N-((5′-bromo-[2,2′-bithiophen]-5-yl)methyl)adamantan-1-amine]			B (key: (A)=31-95%; (B)=0-30%)	A (key: (A)=31-95%; (B)=0-30%)
c1ccc2cc(COc3ccc(CNC45CC6CC(CC(C6)C4)C5)cc3)ccc2c1 [Example 38a, N-(4-(naphthalen-2-ylmethoxy)benzyl)adamantan-1-amine]			B (key: (A)=31-95%; (B)=0-30%)	B (key: (A)=31-95%; (B)=0-30%)
Oc1ccc(CN2CC3CC4CC(C3)CC2C4)c(O)c1 [Example 116, 4-(4-Aza-tricyclo[4.3.1.13,8]undec-4-ylmethyl)-benzene-1,3-diol]	A (key: (A)=31-95%; (B)=0-30%)	B (key: (A)=31-95%; (B)=0-30%)		
c1cc(CNC23CC4CC(CC(C4)C2)C3)ccn1 [Example 73, Adamantan-1-yl-pyridin-4-ylmethyl-amine]	B (key: (A)=31-95%; (B)=0-30%)	B (key: (A)=31-95%; (B)=0-30%)		
c1coc(-c2ccc(CNC34CC5CC(CC(C5)C3)C4)cc2)c1 [Example 31a, N-(4-(Furan-2-yl)benzyl)adamantan-1-amine]			B (key: (A)=31-95%; (B)=0-30%)	A (key: (A)=31-95%; (B)=0-30%)

SMILES	V27A OOcyte Inhibition at 100 uM (%) ([1]; pH 5.5)	S31N OOcyte Inhibition at 100 uM (%) ([2]; pH 5.5)	V27A OOcyte Inhibition at 100 uM (%) [1]	S31N OOcyte Inhibition at 100 uM (%) [2]
OC12CC3CC(C1)CC(NCc1cccs1)(C3)C2 [Example 187a, 3-[(Thiophen-2-ylmethyl)-amino]adamantan-1-ol]			B (key: (A)=31-95%; (B)=0-30%)	A (key: (A)=31-95%; (B)=0-30%)
Oc1ccc(CNC23CC4CC(CC(C4)C2)C3)c(O)c1O [Example 65, 4-(Adamantan-1-ylaminomethyl)-benzene-1,2,3-triol]	A (key: (A)=31-95%; (B)=0-30%)	B (key: (A)=31-95%; (B)=0-30%)		
COc1ccc(CN(C)C23CC4CC(CC(C4)C2)C3)cc1 [Example 32, Adamantan-1-yl-(4-methoxy-benzyl)-methyl-amine]	B (key: (A)=31-95%; (B)=0-30%)	B (key: (A)=31-95%; (B)=0-30%)		
c1ccn2c(CNC34CC5CC(CC(C5)C3)C4)cnc2c1 [Example 203a, Adamantan-1-yl-imidazo[1,2-a]pyridin-3-ylmethyl-amine]			B (key: (A)=31-95%; (B)=0-30%)	B (key: (A)=31-95%; (B)=0-30%)
c1cc(CNC23CC4CC(CC(C4)C2)C3)c2cc[nH]c2c1 [Example 96, Adamantan-1-yl-(1H-indol-4-ylmethyl)-amine]	A (key: (A)=31-95%; (B)=0-30%)	B (key: (A)=31-95%; (B)=0-30%)		
Oc1cc(O)c(CNC23CC4CC(CC(C4)C2)C3)c(O)c1 [Example 70, 2-(Adamantan-1-ylaminomethyl)-benzene-1,3,5-triol]	B (key: (A)=31-95%; (B)=0-30%)	B (key: (A)=31-95%; (B)=0-30%)		
Oc1ccc2[nH]c(CNC34CC5CC(CC(C5)C3)C4)cc2c1 [Example 179a]			B (key: (A)=31-95%; (B)=0-30%)	B (key: (A)=31-95%; (B)=0-30%)
Cc1noc(C)c1-c1ccc(CNC23CC4CC(CC(C4)C2)C3)cc1 [Example 33a, N-(4-(3,5-Dimethylisoxazol-4-yl)benzyl)adamantan-1-amine]			B (key: (A)=31-95%; (B)=0-30%)	B (key: (A)=31-95%; (B)=0-30%)
c1cc2cc(CNC34CC5CC(CC(C5)C3)C4)sc2o1 [Example 83, Adamantan-1-yl-thieno[2,3-b]furan-5-ylmethyl-amine]	B (key: (A)=31-95%; (B)=0-30%)	A (key: (A)=31-95%; (B)=0-30%)		
c1ncc(CCNCC23CC4CC(CC(C4)C2)C3)[nH]1 [Example 1, Adamantan-1-ylmethyl-[2-(3H-imidazol-4-yl)-ethyl]-amine]	B (key: (A)=31-95%; (B)=0-30%)	B (key: (A)=31-95%; (B)=0-30%)		
COc1ccc(CNC23CC4CC(CC(C4)C2)C3)cc1 [Example 16, Adamantan-1-yl-(4-methoxy-benzyl)-amine]	A (key: (A)=31-95%; (B)=0-30%)	A (key: (A)=31-95%; (B)=0-30%)		
c1ccc2[nH]c(CNC34CC5CC(CC(C5)C3)C4)nc2c1 [Example 92, Adamantan-1-yl-(1H-benzoimidazol-2-ylmethyl)-amine]	B (key: (A)=31-95%; (B)=0-30%)	A (key: (A)=31-95%; (B)=0-30%)		
O=C1CCCN1c1ccc(CNC23CC4CC(CC(C4)C2)C3)cc1 [Example 45a, 1-(4-((adamantan-1-ylamino)methyl)phenyl)pyrrolidin-2-one]			B (key: (A)=31-95%; (B)=0-30%)	A (key: (A)=31-95%; (B)=0-30%)
Oc1cc(OCc2ccccc2)ccc1CNC12CC3CC(CC(C3)C1)C2 [Example 37a, 2-(Adamantan-1-ylaminomethyl)-5-benzyloxy-phenol]			B (key: (A)=31-95%; (B)=0-30%)	A (key: (A)=31-95%; (B)=0-30%)
COc1ccc(-c2ccc(CNC34CC5CC(CC(C5)C3)C4)s2)cc1 [Example 113a, N-((5-(4-methoxyphenyl)thiophen-2-yl)methyl)adamantan-1-amine]			B (key: (A)=31-95%; (B)=0-30%)	A (key: (A)=31-95%; (B)=0-30%)
CC(NC12CC3CC(CC(C3)C1)C2)c1ccc(I)s1 (stereo not drawn) [Example 82a, N-(1-(5-iodothiophen-2-yl)ethyl)adamantan-1-amine]			A (key: (A)=31-95%; (B)=0-30%)	B (key: (A)=31-95%; (B)=0-30%)
c1cc(-c2csc(CNC34CC5CC(CC(C5)C3)C4)c2)cs1 [Example 152a, N-([3,3′-bithiophen]-5-ylmethyl)adamantan-1-amine]			A (key: (A)=31-95%; (B)=0-30%)	B (key: (A)=31-95%; (B)=0-30%)
Cc1ccc(CNC23CC4CC(CC(C4)C2)C3)s1 [Example 78a, N-((5-methylthiophen-2-yl)methyl)adamantan-1-amine]			A (key: (A)=31-95%; (B)=0-30%)	A (key: (A)=31-95%; (B)=0-30%)
